Experimental data from US20230159546A1, “NOVEL SPIROPYRROLIDINE DERIVED ANTIVIRAL AGENTS” (Enanta Pharmaceuticals, Inc., priority 2021, published 2023).
pEC50, pIC50: −log10 of the molar value. Like-named read-outs stand apart in the source and are kept apart here.

Columns and labels:
[1] = tested on: 229E human corona virus (hCoV); test: 229E live virus assay (CPE, ATPlite readout, MRC-5 cells); type: cell-based, hCoV-229E; conditions: Human coronavirus 229E, MRC5, 144 h, read-out: 229E EC50
SARS-CoV-2 3CL-protease = SARS-CoV-2 3CL-protease (Severe acute respiratory syndrome coronavirus 2, UniProt P0DTD1); test: SARS-CoV-2 3C-like (3CL) protease fluorescence assay (FRET); type: biochemical; conditions: recombinant SARS-CoV-2 3CL-protease 10 nM, 30 min preincubation at RT, duplicate; read-out: FRET IC50
[2] = MRC-5 cells, MOI 0.05, 6 days at 34° C., ATPlite, duplicate

SMILES	pEC50 [1, 2]	pIC50 (SARS-CoV-2 3CL-protease)	pEC50 [1]
CC(C)C[C@@H](C(=O)Nc1cc(F)cc(F)c1)C(=O)N1C[C@]2(C[C@H]1C#N)C(=O)Nc1ccccc12 (single isomer, unassigned) [Example 11]	< 6.00	< 6.00	–
CC(C)C[C@H](C(=O)Nc1cc(F)cc(F)c1)C(=O)N1C[C@]2(C[C@H]1C#N)C(=O)Nc1ccccc12 (single isomer, unassigned) [Example 12]	< 6.00	< 6.00	–
CC(C)CC(C(=O)Nc1ccccc1)C(=O)N1C[C@]2(C[C@H]1C#N)C(=O)Nc1ccccc12 (some centres unmarked) [Example 1]	–	< 6.00	< 6.00
CC(C)CC(C(=O)N(C)c1ccccc1)C(=O)N1C[C@]2(C[C@H]1C#N)C(=O)Nc1ccccc12 (some centres unmarked) [Example 2]	< 6.00	< 6.00	–
CC(C)CC(C(=O)NC1CC1)C(=O)N1C[C@]2(C[C@H]1C#N)C(=O)Nc1ccccc12 (some centres unmarked) [Example 3]	6.00 to 7.00	< 6.00	–
CC(C)CC(C(=O)Nc1cc2ccccc2[nH]1)C(=O)N1C[C@]2(C[C@H]1C#N)C(=O)Nc1ccccc12 (some centres unmarked) [Example 4]	< 6.00	< 6.00	–
CC(C)CC(C(=O)Nc1ccc2ccccc2c1)C(=O)N1C[C@]2(C[C@H]1C#N)C(=O)Nc1ccccc12 (some centres unmarked) [Example 5]	6.00 to 7.00	< 6.00	–
CC(C)CC(C(=O)Nc1cc(F)ccc1F)C(=O)N1C[C@]2(C[C@H]1C#N)C(=O)Nc1ccccc12 (some centres unmarked) [Example 6]	6.00 to 7.00	< 6.00	–
CC(C)CC(C(=O)Nc1cc(F)cc(F)c1)C(=O)N1C[C@]2(C[C@H]1C#N)C(=O)Nc1ccccc12 (some centres unmarked) [Example 7]	6.00 to 7.00	< 6.00	–
CC(C)CC(C(=O)Nc1ccc(F)cc1F)C(=O)N1C[C@]2(C[C@H]1C#N)C(=O)Nc1ccccc12 (some centres unmarked) [Example 8]	< 6.00	< 6.00	–
CC(C)CC(C(=O)Nc1ccc(F)cc1Cl)C(=O)N1C[C@]2(C[C@H]1C#N)C(=O)Nc1ccccc12 (some centres unmarked) [Example 9]	< 6.00	< 6.00	–
CC(C)CC(C(=O)Nc1c(F)cccc1Cl)C(=O)N1C[C@]2(C[C@H]1C#N)C(=O)Nc1ccccc12 (some centres unmarked) [Example 10]	< 6.00	< 6.00	–
CC(C)CC(C(=O)Nc1cccc(-c2ccccc2)c1)C(=O)N1C[C@]2(C[C@H]1C#N)C(=O)Nc1ccccc12 (some centres unmarked) [Example 13]	< 6.00	< 6.00	–
CC(C)CC(C(=O)Nc1ccc(-c2ccccc2)cc1)C(=O)N1C[C@]2(C[C@H]1C#N)C(=O)Nc1ccccc12 (some centres unmarked) [Example 14]	< 6.00	< 6.00	–
CC(C(=O)Nc1ccccc1)C(=O)N1C[C@]2(C[C@H]1C#N)C(=O)Nc1ccccc12 (some centres unmarked) [Example 15]	< 6.00	< 6.00	–
CC(C(=O)N(C)c1ccccc1)C(=O)N1C[C@]2(C[C@H]1C#N)C(=O)Nc1ccccc12 (some centres unmarked) [Example 16]	6.00 to 7.00	< 6.00	–
CC(C(=O)Nc1cc(F)cc(F)c1)C(=O)N1C[C@]2(C[C@H]1C#N)C(=O)Nc1ccccc12 (some centres unmarked) [Example 17]	< 6.00	< 6.00	–
CC(C)CC(F)(C(=O)Nc1ccccc1)C(=O)N1C[C@]2(C[C@H]1C#N)C(=O)Nc1ccccc12 (some centres unmarked) [Example 18]	< 6.00	< 6.00	–
CC(C)CC(F)(C(=O)N(C)c1ccccc1)C(=O)N1C[C@]2(C[C@H]1C#N)C(=O)Nc1ccccc12 (some centres unmarked) [Example 19]	< 6.00	< 6.00	–
CC(C)CC(F)(C(=O)Nc1cc(F)cc(F)c1)C(=O)N1C[C@]2(C[C@H]1C#N)C(=O)Nc1ccccc12 (some centres unmarked) [Example 20]	< 6.00	< 6.00	–
N#C[C@@H]1C[C@@]2(CN1C(=O)C(Cc1ccccc1)C(=O)Nc1ccccc1)C(=O)Nc1ccccc12 (some centres unmarked) [Example 21]	< 6.00	6.00 to 7.00	–

SMILES	pEC50 [1, 2]	pIC50 (SARS-CoV-2 3CL-protease)	pEC50 [1]
CN(C(=O)C(Cc1ccccc1)C(=O)N1C[C@]2(C[C@H]1C#N)C(=O)Nc1ccccc12)c1ccccc1 (some centres unmarked) [Example 22]	< 6.00	< 6.00	–
N#C[C@@H]1C[C@@]2(CN1C(=O)C(Cc1ccccc1)C(=O)Nc1cc(F)cc(F)c1)C(=O)Nc1ccccc12 (some centres unmarked) [Example 23]	< 6.00	6.00 to 7.00	–
N#C[C@@H]1C[C@@]2(CN1C(=O)C(Cc1ccccc1)C(=O)Nc1ccc3ccccc3c1)C(=O)Nc1ccccc12 (some centres unmarked) [Example 24]	< 6.00	6.00 to 7.00	–
N#C[C@@H]1C[C@@]2(CN1C(=O)[C@@H](Cc1ccccc1)C(=O)Nc1cc(F)cc(F)c1)C(=O)Nc1ccccc12 [Example 25]	< 6.00	6.00 to 7.00	–
N#C[C@@H]1C[C@@]2(CN1C(=O)[C@H](Cc1ccccc1)C(=O)Nc1cc(F)cc(F)c1)C(=O)Nc1ccccc12 [Example 26]	< 6.00	< 6.00	–
N#C[C@@H]1C[C@@]2(CN1C(=O)C(F)(Cc1ccccc1)C(=O)Nc1ccccc1)C(=O)Nc1ccccc12 (some centres unmarked) [Example 27]	< 6.00	< 6.00	–
N#C[C@@H]1C[C@@]2(CN1C(=O)C(F)(Cc1ccccc1)C(=O)Nc1cc(F)cc(F)c1)C(=O)Nc1ccccc12 (some centres unmarked) [Example 28]	< 6.00	< 6.00	–
CC(=O)N1C[C@]2(C[C@H]1C#N)C(=O)Nc1ccccc12 [Example 29]	6.00 to 7.00	< 6.00	–
N#C[C@@H]1C[C@@]2(CN1C(=O)c1ccccc1)C(=O)Nc1ccccc12 [Example 30]	6.00 to 7.00	< 6.00	–
CC(C)CC(C(=O)N1C[C@]2(C[C@H]1C#N)C(=O)Nc1ccccc12)c1ccc(NC(=O)c2cc3c(F)cccc3[nH]2)cn1 (some centres unmarked) [Example 31]	< 6.00	< 6.00	–
Cc1ccc(S(=O)(=O)N2C[C@]3(C[C@H]2C#N)C(=O)Nc2ccccc23)cc1 [Example 32]	–	< 6.00	< 6.00
N#C[C@@H]1C[C@@]2(CN1S(=O)(=O)c1ncc(-c3ccc(F)cc3)s1)C(=O)Nc1ccccc12 [Example 33]	< 6.00	< 6.00	–
Cc1nc(-c2ccc(S(=O)(=O)N3C[C@]4(C[C@H]3C#N)C(=O)Nc3ccccc34)s2)cs1 [Example 34]	< 6.00	< 6.00	–
N#C[C@@H]1C[C@@]2(CN1S(=O)(=O)c1ccc(Oc3ccccc3)cc1)C(=O)Nc1ccccc12 [Example 35]	< 6.00	< 6.00	–
N#C[C@@H]1C[C@@]2(CN1C(=O)c1ccc(-c3ccccc3)cc1)C(=O)Nc1ccccc12 [Example 36]	< 6.00	< 6.00	–
N#C[C@@H]1C[C@@]2(CN1C(=O)c1cc3ccccc3nc1Cl)C(=O)Nc1ccccc12 [Example 37]	< 6.00	< 6.00	–
N#C[C@@H]1C[C@@]2(CN1C(=O)NC1CCCCC1)C(=O)Nc1ccccc12 [Example 38]	> 7.00	< 6.00	–
N#C[C@@H]1C[C@@]2(CN1CC1CCCCC1)C(=O)Nc1ccccc12 [Example 39]	< 6.00	< 6.00	–
CC(C)C(=O)N1C[C@]2(C[C@H]1C#N)C(=O)Nc1ccccc12 [Example 40]	< 6.00	< 6.00	–
CC(C)(C)C(=O)N1C[C@]2(C[C@H]1C#N)C(=O)Nc1ccccc12 [Example 41]	< 6.00	< 6.00	–
N#C[C@@H]1C[C@@]2(CN1C(=O)C1CC1)C(=O)Nc1ccccc12 [Example 42]	< 6.00	< 6.00	–

SMILES	pEC50 [1, 2]	pIC50 (SARS-CoV-2 3CL-protease)	pEC50 [1]
N#C[C@@H]1C[C@@]2(CN1C(=O)C1CCCCC1)C(=O)Nc1ccccc12 [Example 43]	< 6.00	< 6.00	–
N#C[C@@H]1C[C@@]2(CN1C(=O)c1ccc3cccnc3c1)C(=O)Nc1ccccc12 [Example 44]	< 6.00	< 6.00	–
CCNC(=O)N1C[C@]2(C[C@H]1C#N)C(=O)Nc1ccccc12 [Example 46]	< 6.00	< 6.00	–
CC(C)NC(=O)N1C[C@]2(C[C@H]1C#N)C(=O)Nc1ccccc12 [Example 47]	< 6.00	< 6.00	–
N#C[C@@H]1C[C@@]2(CN1C(=O)NC1CC1)C(=O)Nc1ccccc12 [Example 48]	–	< 6.00	< 6.00
N#C[C@@H]1C[C@@]2(CN1C(=O)NC1CCCC1)C(=O)Nc1ccccc12 [Example 49]	6.00 to 7.00	< 6.00	–
N#C[C@@H]1C[C@@]2(CN1C(=O)Nc1ccccc1)C(=O)Nc1ccccc12 [Example 50]	< 6.00	< 6.00	–
N#C[C@@H]1C[C@@]2(CN1C(=O)NCc1ccccc1)C(=O)Nc1ccccc12 [Example 51]	6.00 to 7.00	< 6.00	–
N#C[C@@H]1C[C@@]2(CN1C(=O)Nc1ccc3cccnc3c1)C(=O)Nc1ccccc12 [Example 52]	< 6.00	< 6.00	–
N#C[C@@H]1C[C@@]2(CN1C(=O)NCc1nccs1)C(=O)Nc1ccccc12 [Example 53]	< 6.00	< 6.00	–
N#C[C@@H]1C[C@@]2(CN1C(=O)CC(=O)N[C@H]1CC[C@H](O)C1)C(=O)Nc1ccccc12 [Example 180]	–	< 6.00	–
N#C[C@@H]1C[C@@]2(CN1C(=O)CC(=O)N[C@@H]1CC[C@@H](O)C1)C(=O)Nc1ccccc12 [Example 181]	–	< 6.00	–
N#C[C@@H]1C[C@@]2(CN1C(=O)CC(=O)N[C@H]1CC[C@@H](O)C1)C(=O)Nc1ccccc12 [Example 182]	–	< 6.00	–
N#C[C@@H]1C[C@@]2(CN1C(=O)CC(=O)N[C@@H]1CC[C@H](O)C1)C(=O)Nc1ccccc12 [Example 183]	–	< 6.00	–
CCCC(CCC)(CCC)NC(=O)C(=O)N1C[C@]2(C[C@H]1C#N)C(=O)Nc1ccccc12 [Example 185]	–	6.00 to 7.00	–
N#C[C@@H]1C[C@@]2(CN1C(=O)C(=O)NCc1cc(F)c(F)cc1F)C(=O)Nc1ccccc12 [Example 186]	–	< 6.00	–
N#C[C@@H]1C[C@@]2(CN1C(=O)C(=O)NCCc1cc(F)cc(F)c1F)C(=O)Nc1ccccc12 [Example 187]	–	< 6.00	–
Cc1cccc(C)c1NC(CC(=O)N(C)[C@@H](CC(C)C)C(=O)N1C[C@]2(C[C@H]1C#N)C(=O)Nc1ccccc12)C(F)(F)F (some centres unmarked) [Example 198]	–	> 7.00	–
N#C[C@@H]1C[C@@]2(CN1C(=O)C(=O)Nc1cncc(C(F)(F)F)c1)C(=O)Nc1ccccc12 [Example 199]	–	< 6.00	–
